{
  "source": "patent US10647990B2",
  "about": "“Rice high temperature resistance gene and use in crop breeding resistance to high temperature thereof” (SHANGHAI INSTITUTES FOR BIOLOGICAL SCIENCES, CHINESE …, priority 2014, dated 2020)",
  "test_system": "rice",
  "assay": "MG132 treatment of rice during high temperature treatment (blocking the 26S proteasome degradation pathway)",
  "format": "in vivo, Oryza sativa",
  "conditions": "under high temperature stress; MG132 0 μM, 50 μM, 100 μM; FIG. 6G, H",
  "note": "“Also recorded” adds a separate entry of the source. Peptide text beside a SMILES is read from it. * marks the point of attachment. Cbz = O=C(OCc1ccccc1)*",
  "data": [
    {"molecule": "CC(C)C[C@@H](C=O)NC(=O)[C@H](CC(C)C)NC(=O)[C@H](CC(C)C)NC(=O)OCc1ccccc1", "note": "[MG132] (Cbz-Leu-Leu-Leu-aldehyde)", "values": [
      {"measurement": "high temperature resistance of rice", "value": "high temperature sensitive phenotype; also recorded: can reduce the high temperature resistance of rice"}
    ]}
  ]
}
